IC50 data for 1 compound are collected here from US9012166B2, “Method for assaying histone methylation enzyme activity” (Kyushu Institute of Technology, priority 2010, dated 2015).

Broadly, the pIC50 is the IC50 on a negative log10 scale, so that one unit is a factor of ten.

The target in this assay is T1, G9a (GST-mG9a) (Mus musculus, UniProt Q9Z148).
T1 sequence (Q9Z148 1-1263): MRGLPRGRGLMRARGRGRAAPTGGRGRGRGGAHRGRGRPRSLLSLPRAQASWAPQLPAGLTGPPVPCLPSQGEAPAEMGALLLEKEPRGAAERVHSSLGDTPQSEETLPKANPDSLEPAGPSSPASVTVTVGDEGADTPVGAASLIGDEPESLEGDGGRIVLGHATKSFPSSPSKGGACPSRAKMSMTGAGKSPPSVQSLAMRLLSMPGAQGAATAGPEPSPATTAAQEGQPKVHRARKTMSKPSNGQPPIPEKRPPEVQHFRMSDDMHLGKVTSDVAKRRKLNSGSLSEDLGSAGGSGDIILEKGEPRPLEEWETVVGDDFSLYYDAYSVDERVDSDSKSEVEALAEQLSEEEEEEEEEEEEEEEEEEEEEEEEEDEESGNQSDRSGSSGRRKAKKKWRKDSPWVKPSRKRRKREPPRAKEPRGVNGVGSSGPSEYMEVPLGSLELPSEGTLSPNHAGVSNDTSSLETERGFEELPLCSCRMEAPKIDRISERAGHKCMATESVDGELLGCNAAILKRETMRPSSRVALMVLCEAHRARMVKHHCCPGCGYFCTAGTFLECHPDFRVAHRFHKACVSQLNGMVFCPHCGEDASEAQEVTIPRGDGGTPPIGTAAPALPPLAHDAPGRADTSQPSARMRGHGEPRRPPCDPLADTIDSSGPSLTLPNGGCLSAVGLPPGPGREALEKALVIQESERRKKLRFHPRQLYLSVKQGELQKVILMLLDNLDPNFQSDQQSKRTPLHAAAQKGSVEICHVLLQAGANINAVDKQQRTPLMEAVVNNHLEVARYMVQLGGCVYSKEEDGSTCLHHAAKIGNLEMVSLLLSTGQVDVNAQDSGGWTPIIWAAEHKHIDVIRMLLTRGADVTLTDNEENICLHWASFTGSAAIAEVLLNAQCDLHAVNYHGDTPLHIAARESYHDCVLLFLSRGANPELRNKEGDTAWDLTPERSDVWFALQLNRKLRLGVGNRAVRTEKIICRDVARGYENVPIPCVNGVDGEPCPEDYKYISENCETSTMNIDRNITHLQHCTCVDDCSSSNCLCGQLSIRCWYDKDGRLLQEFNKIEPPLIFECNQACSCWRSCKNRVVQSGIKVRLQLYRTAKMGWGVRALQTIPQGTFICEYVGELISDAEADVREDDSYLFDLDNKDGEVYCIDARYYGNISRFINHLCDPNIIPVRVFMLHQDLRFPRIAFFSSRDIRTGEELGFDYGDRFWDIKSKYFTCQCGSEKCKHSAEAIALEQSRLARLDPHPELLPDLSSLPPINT
In words: Assay for measuring histone methyltransferase activity using peptidyl MCA, inhibitor evaluation with G9a. Format: biochemical. To be noted: IC50 for G9a, Ac-histone H3 (1-9)-MCA. As to the method:
When G9a was adopted as a histone methyltransferase, the following method was used. 10 μL of 2×HMT buffer (100 mM Tris-HCl (pH 8.5), 20 mM MgCl2, 40 mM KCl, 20 mM 2-mercaptoethanol, 500 mM sucrose), 0.4 μL of a BSA solution (150 μg/mL), 2 μL of GST-mG9a (0, 0.5 μg/μL), 1 μL of gliotoxin (any of various concentrations) and 2.6 μL of distilled water were mixed and then incubated at room temperature for 1 hour. Then, 2 μL of SAM (10 mM) and 2 μL of a peptidyl MCA (Ac-histone H3 (1-9)-MCA) solution (0.6 mM) were added thereto, which was then incubated at 37° C. for 1 hour. Thereafter, 30 μL of a trypsin solution (20 mg/mL) was added thereto, followed by incubation at 37° C. for 15 minutes. Then, the fluorescence intensity of the solution was measured at an excitation wavelength (λex) of 390 nm and a fluorescence wavelength (λem) of 460 nm. The final concentration of GST-mG9a during the measurement of fluorescence intensity was 0.05 μg/μL. The results of the assay for measuring histone methyltransferase activity are shown in the middle panel of FIG. 18.
The rate of the inhibition of methylation by gliotoxin was calculated from the results in the left panel and the middle panel of FIG. 18. Specifically, the value (%) was calculated which was obtained by dividing “a value obtained by subtracting “the fluorescence intensity of AMC when peptidase was added but gliotoxin was not added” from “the fluorescence intensity of AMC when both peptidase and gliotoxin were added”” by “a value obtained by subtracting “the fluorescence intensity of AMC when peptidase was added but gliotoxin was not added” from “the fluorescence intensity of AMC when no peptidase or gliotoxin was added”” and multiplying the resultant value by 100. The rate (%) of the inhibition of methylation by gliotoxin is shown in the right panel of FIG. 18.
Specifically, the assay for measuring histone methyltransferase activity was carried out by the same method as the method using G9a […] in Example 8 except for using S-Adenosyl-L-homocysteine (SAH) in place of gliotoxin. SAH is a by-product of the methylation reaction and is known to inhibit histone methyltransferase in a negative feedback manner. […] The rate (%) of the inhibition of methylation by SAH was calculated from the results in the left panel of FIG. 19. The results are shown in the right panel of FIG. 19.
When G9a was adopted as a histone methyltransferase, the following method was used. […] Then, the fluorescence intensity of the solution was measured at an excitation wavelength (λex) of 330 nm and a fluorescence wavelength (λem) of 380 nm or at an excitation wavelength (λex) of 390 nm and a fluorescence wavelength (λem) of 460 nm. The final concentration of GST-mG9a during the measurement of fluorescence intensity was 0 μg/μL or 0.05 μg/μL.

The structures appear in SMILES notation. pIC50: −log10 of the molar value.

As for `CN1C(=O)[C@]23CC4=CC=C[C@H](O)[C@H]4N2C(=O)[C@@]1(CO)SS3` [gliotoxin], the pIC50 runs as follows: (Example 8, AMC fluorescence λex 390 nm/λem 460 nm, FIG. 18) 5.55; (Example 14, AMC fluorescence λex 390 nm/λem 460 nm, left panel of FIG. 27) 5.74; (Example 14, peptidyl MCA fluorescence λex 330 nm/λem 380 nm, right panel of FIG. 27) 5.55.
